Measurements taken from US9164075B2, “Glutathione alkylester isotopologue and method for detecting reactive metabolite” (priority 2011, dated 2015).

Assays:
[1] = rat, 60 min, 10 μmol/L, pH 7.4
Procedure: (§1) NADPH (20 mmol/L, […]) was added to the pre-incubated incubation mixture and a reaction (incubation) was started. The final incubation volume was 1 mL. A sample containing no object compound was used as a control.
(§2) After incubation at 37° C. for 60 minutes, the resultant mixture was subjected to centrifugation at 10,000 g for 5 minutes. The centrifugation supernatant was added to a solid phase extraction column (OASIS HLB 1 cc, 30 mg) that was pre-washed with 1 mL of methanol and activated with 1 mL of purified water. The column was washed with 1 mL of water and 1 mL of 5% methanol water, and a reaction product was eluted with 1 mL of methanol. The solvent was removed by evaporation under nitrogen flow, and the residue was dissolved in 150 μL of acetonitrile:water (2:8) to prepare an analysis sample.
(§3) An AQCUITY UPLC system (WATERS) was used for separation by chromatography. Aliquots (10 μL) of the prepared analysis sample was injected into an AQCUITY UPLC BEH C18 column (2.1×100 mm, 1.7 μm). The separation by chromatography was performed under the gradient conditions shown in TABLE 3 at a mobile phase flow rate of 0.5 mL/minute.
(§4) The LC column eluate obtained in step 2-1 was introduced into an LTQ XL ion trap mass spectrometer. Ionization was performed in an ESI positive mode (a mode for detecting positively charged ions). The measurement conditions used are shown below (measurement conditions A).
The measurement conditions used are shown below (measurement conditions E).
Among the peaks appearing in the final chromatogram, peaks other than the peaks also appearing in the final chromatogram for the control (FIG. 46) are considered to be the peaks of trapping agent-reactive metabolite adducts.

[2] = rat, 60 min, 10 μmol/L, pH 7.4; remark: listed apart in the source
Procedure: Glutathione ethyl ester (1 mmol/L, 1 μmol) was used as the trapping agent instead of the mixture of glutathione ethyl ester (GSHEE) and glutathione ethyl ester-d5 (GSHEE-d5), and the reaction and measurement were performed in the same manner as in (step 1) and (step 2) described above.
In the MS/MS measurement corresponding to (step 2-3), the MS/MS measurement was performed in a data dependent scan mode in which ions with the strongest intensity in a first spectrum were subjected to collisional activation to thereby obtain a second spectrum. The measurement conditions used are as follows (measurement conditions C).

[3] = for NUMBER OF IDENTIFIED REACTIVE METABOLITES (EXAMPLES): rat, 60 min, 10 μmol/L, pH 7.4
Procedure: as §1
as §2, with “minutes, a 50 mmol/L aqueous dithiothreitol solution (100 μL, 5 μmol) was added to the incubation mixture, and” for “minutes,”, “solution,” for “water,”
as §3, with “under” for “under the”, “the following table” for “TABLE 3”
as §4
The measurement conditions used are shown below (measurement conditions B).
Among the peaks appearing in the final chromatogram, peaks other than the peaks also appearing in the final chromatogram for the control (FIG. 2 or 13) are considered to be the peaks of trapping agent-reactive metabolite adducts.

[4] = Reactive metabolite trapping test with glutathione ethyl ester only, data dependent scan mode with Dynamic Exclusion ON (Comparative Example 8); format: in vitro ADME; conditions: rat liver microsomes
Procedure: Omeprazole was used as the object compound. Measurement was performed in the same manner as in Comparative Example 1 except that the MS/MS measurement corresponding to (step 2-3) was performed in a data dependent scan mode (a Dynamic Exclusion ON mode) in which the MS/MS measurement was performed on ions in descending order of intensity. In the data dependent scan mode (Dynamic Exclusion ON mode), ions for a peak with the strongest intensity among the peaks in a first spectrum are subjected to MS/MS measurement three times. Then these ions are eliminated, and ions with the next strongest intensity are subjected to MS/MS measurement three times. This processing is repeated in order of intensity. The measurement conditions used are as follows (measurement conditions D).

In the case of `O=c1c(O)c(-c2ccc(O)c(O)c2)oc2cc(O)cc(O)c12` [quercetin], the “NUMBER OF IDENTIFIED REACTIVE METABOLITES (COMPARATIVE EXAMPLES, [13C2, 15N]GSH)” value [1] is reported as 2, the “NUMBER OF IDENTIFIED REACTIVE METABOLITES (COMPARATIVE EXAMPLES, GSHEE)” value [2] is reported as 3 and the “judgement of reactive metabolite formation” value (shortened to “judgement”) [3] is reported as “positive”. For the same compound, the “NUMBER OF IDENTIFIED REACTIVE METABOLITES (EXAMPLES)” value [3] was 3.
For `O=C(O)COc1ccc(C(=O)c2cccs2)c(Cl)c1Cl` [tienilic acid], the “NUMBER OF IDENTIFIED REACTIVE METABOLITES (COMPARATIVE EXAMPLES, [13C2, 15N]GSH)” value [1] was 1, the “NUMBER OF IDENTIFIED REACTIVE METABOLITES (COMPARATIVE EXAMPLES, GSHEE)” value [2] was 0 and the “judgement” value [3] was “positive”. The “NUMBER OF IDENTIFIED REACTIVE METABOLITES (EXAMPLES)” value [3] was 1.
With `O=C(O)Cc1ccccc1Nc1c(Cl)cccc1Cl` [diclofenac] the “NUMBER OF IDENTIFIED REACTIVE METABOLITES (COMPARATIVE EXAMPLES, GSHEE)” value [2] was 1.
In the case of `COc1ccc2[nH]c([S+]([O-])Cc3ncc(C)c(OC)c3C)nc2c1` (centres unmarked) [omeprazole], the “NUMBER OF IDENTIFIED REACTIVE METABOLITES (COMPARATIVE EXAMPLES, [13C2, 15N]GSH)” value [1] is reported as 2, the “NUMBER OF IDENTIFIED REACTIVE METABOLITES (COMPARATIVE EXAMPLES, GSHEE)” value [2] is reported as 1 and the “number of types of reactive metabolite found” value [4] is reported as “one”. The “judgement” value [3] was “positive” and the “NUMBER OF IDENTIFIED REACTIVE METABOLITES (EXAMPLES)” value [3] was 2.
